# Measured values reported in PubChem BioAssay (NCI).
#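 Cells were grown in 96-well plates and exposed to each compound for 48 hours at five concentrations; endpoints were interpolated linearly between bracketing concentrations, or set to the highest concentration if not reached. GI50 is the concentration that inhibits growth by half. Definition used: TGI = concentration required for complete inhibition of growth.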
# Legend:
# Test in all cases: DTP human tumour cell line panel, 48 h
# T-47D breast = system: T-47D breast
# SF-539 CNS = system: SF-539 CNS
# CCRF-CEM leukemia = system: CCRF-CEM leukemia
# HL-60(TB) leukemia = system: HL-60(TB) leukemia
# A498 renal = system: A498 renal
# CAKI-1 renal = system: CAKI-1 renal
# SW-620 colon = system: SW-620 colon
# DU-145 prostate = system: DU-145 prostate
# HOP-62 NSCLC = system: HOP-62 NSCLC
# EKVX NSCLC = system: EKVX NSCLC
Structure (SMILES),GI50 (T-47D breast),TGI (T-47D breast),GI50 (SF-539 CNS),TGI (SF-539 CNS),GI50 (CCRF-CEM leukemia),TGI (CCRF-CEM leukemia),GI50 (HL-60(TB) leukemia),TGI (HL-60(TB) leukemia),GI50 (A498 renal),TGI (A498 renal),GI50 (CAKI-1 renal),TGI (CAKI-1 renal),GI50 (SW-620 colon),TGI (SW-620 colon),GI50 (DU-145 prostate),TGI (DU-145 prostate),GI50 (HOP-62 NSCLC),TGI (HOP-62 NSCLC),GI50 (EKVX NSCLC),TGI (EKVX NSCLC)
CN[C@H](C#Cc1c(F)ccc2c1/C(=C/c1[nH]ccc1OC)C(=O)N2)CO,2.27 µM,13.6 µM,0.431 µM,1.53 µM,0.349 µM,1.83 µM,0.513 µM,2.01 µM,0.452 µM,3.35 µM,0.0314 µM,0.736 µM,0.476 µM,2.71 µM,0.411 µM,3 µM,0.628 µM,2.42 µM,,
O=C(Nc1cccc(-n2cc(-c3ccncc3)c(-c3cc(O)cc(Cl)c3)n2)c1)Nc1ccc(Cl)c(C(F)(F)F)c1,2.44 µM,9.27 µM,1.97 µM,4.49 µM,2.73 µM,8.93 µM,2.86 µM,6.62 µM,3.9 µM,15.5 µM,2.68 µM,7.87 µM,3.29 µM,10.7 µM,3.27 µM,11.7 µM,3.08 µM,13.4 µM,,
CCOC(=O)c1cc2c(n1Cc1cccc(OC)c1)-c1oncc1CCC2,1.27 µM,> 100 µM,1.19 µM,4.68 µM,2.17 µM,> 100 µM,1.19 µM,> 58.4 µM,0.881 µM,17.6 µM,2.12 µM,> 100 µM,0.554 µM,> 100 µM,2.46 µM,> 32.5 µM,3.54 µM,> 100 µM,,
O=C1c2cccc(NCCN=Cc3cc([N+](=O)[O-])ccc3O)c2C(=O)c2c(NCCN=Cc3cc([N+](=O)[O-])ccc3O)cccc21,9.38 µM,> 100 µM,,,0.963 µM,9.89 µM,38.8 µM,> 100 µM,3.73 µM,31.6 µM,,,1.49 µM,> 100 µM,3.94 µM,58.1 µM,3.37 µM,59.8 µM,16.1 µM,> 100 µM
CCCCC[C@H]1C/C=C2/C(=O)C=C[C@@H]2C/C=C\CCCC(=O)O[C@@H](CCCCC)C/C=C2/C(=O)C=C[C@@H]2C/C=C\CCCC(=O)O1,0.236 µM,0.819 µM,0.423 µM,1.09 µM,0.082 µM,1.42 µM,0.136 µM,0.704 µM,0.449 µM,0.863 µM,,,0.135 µM,0.734 µM,0.355 µM,1.34 µM,0.536 µM,1.29 µM,0.373 µM,1.03 µM
COc1cc(Nc2c(C#N)cnc3cc(OCCCN4CCN(C)CC4)c(OC)cc23)c(Cl)cc1Cl,3.1 µM,18.2 µM,2.3 µM,5.83 µM,1.76 µM,5.74 µM,1.59 µM,3.63 µM,0.586 µM,2.22 µM,0.482 µM,5.13 µM,3.26 µM,11.4 µM,1.19 µM,14.6 µM,4.69 µM,17.6 µM,,
COc1ccc(-c2nc(-c3ccccc3)c(-c3ccccc3)[nH]2)cc1OC1CCCC1,34.9 µM,> 100 µM,> 100 µM,> 100 µM,51.8 µM,> 100 µM,> 100 µM,> 100 µM,> 100 µM,> 100 µM,88 µM,> 100 µM,> 100 µM,> 100 µM,> 100 µM,> 100 µM,> 100 µM,> 100 µM,,
COc1c(O)cc2oc(-c3ccc(O)cc3)cc(=O)c2c1O,,> 100 µM,,> 100 µM,,65.1 µM,,> 100 µM,,16.1 µM,,,,> 100 µM,,> 100 µM,,> 100 µM,,98.1 µM
CCn1cnc(C[C@H](NC(=O)[C@@H](NC(=O)Nc2cc(C(F)(F)F)cc(C(F)(F)F)c2)C(C)C)C(=O)OC)c1,3.66 µM,> 10 µM,3.36 µM,> 10 µM,3.38 µM,> 10 µM,6.18 µM,> 10 µM,> 10 µM,> 10 µM,> 10 µM,> 10 µM,2.01 µM,4.01 µM,2.26 µM,4.84 µM,1.87 µM,3.65 µM,,
COc1cccc(-c2nn(-c3ccccc3)cc2-c2ccnc(NCCCNC(=O)Nc3ccc(Cl)c(Cl)c3)c2)c1,2.41 µM,11.4 µM,2.25 µM,5.29 µM,,,2.51 µM,5.81 µM,2.15 µM,8.08 µM,3.16 µM,15 µM,3.02 µM,10.1 µM,5.47 µM,23 µM,3.23 µM,8.88 µM,3.51 µM,17.5 µM
COc1cccc(C2=C(c3c(C)n(C)c4ccccc34)C(=O)NC2=O)c1,8.83 µM,> 25 µM,> 25 µM,> 25 µM,> 25 µM,> 25 µM,> 17.1 µM,> 25 µM,8.99 µM,> 25 µM,> 25 µM,> 25 µM,12.4 µM,> 25 µM,> 25 µM,> 25 µM,> 25 µM,> 25 µM,,
